# Assay results taken from patent publication US20220274987A1, “PYRAZINO [1,2-B]QUINAZOLINE-3,6-DIONES DERIVATIVES, THEIR PRODUCTION AND USES THEREOF” (CIIMAR -CENTRO INTERDISCIPLINAR DE INVESTIGAÇÃO MARINHA E …, priority 2019, published 2022).
# Like-named read-outs stand apart in the source and are kept apart here.
# Tests used:
# [1] = test system: Plasmodium falciparum 3D7 strain; test: In vitro susceptibility assay of P. falciparum, SYBR Green I; assay type: cell-based; conditions: for IC50: Plasmodium falciparum; for antimalarial activity (in words): P. falciparum 3D7
# Experimental: The principle of the in vitro susceptibility test to malaria is to assess the degree of development of parasites P. falciparum in the presence of different concentrations of the compounds.
# In the present disclosure, the antimalarial activity was also evaluated. Each compound was lyophilized and solubilized in DMSO (Sigma-Aldrich) to obtain a final concentration of 5 mM. Some intermediate dilutions were made to achieve the final concentration of 10 μM in the first well of the plate.
# In an embodiment, the culture of P. falciparum was carried out as follows. […] Parasites were cultivated at 5% hematocrit, 37° C. and atmosphere with 5% of CO2, human serum was replaced with 0.5% AlbuMAXII (Invitrogen™) in the culture medium. Synchronized cultures were obtained by treatments with a 5% (m/v) solution of D-sorbitol (Sigma-Aldrich).
# In the present disclosure, the in vitro susceptibility assay of P. falciparum using SYBR Green I was carried out as follows. […] Briefly, early ring stage parasites (>80% of rings, 3% haematocrit and 1% parasitaemia) were tested in duplicate in a 96-well plate and incubated with the compounds for 48 h (37° C., 5% CO2), parasite growth was assessed with SYBR Green I (Thermo Fisher Scientific). Each compound was tested in concentrations ranging from 10 to 0.001 μM. Fluorescence intensity was measured with a microplate reader with excitation and emission wavelengths of 485 and 535 nm, respectively, and analysed by nonlinear regression using GraphPad Prism 5 demo version to determine
# S. aureus 40/61/24 = test: MIC/MBC broth dilution (CLSI), sensitive clinical isolate; assay type: cell-based; conditions: Staphylococcus aureus
# Description: (§1) In the present disclosure, two Gram-positive—Staphylococcus aureus ATCC 29213 and Enterococcus faecalis ATCC […] and two Gram-negative—Escherichia coli ATCC 25922 and Pseudomonas aeruginosa ATCC 27853—reference bacterial strains were used. When it was possible to determine a minimal inhibitory concentration (MIC) value for these strains, clinically relevant strains were also used. These included methicillin-resistant S. uareus (MRSA) 66/1, isolated from public buses, as well as a isolate sensitive to the most commonly used antibiotic families (S. aureus 40/61/24) and two vancomycin-resistant Enterococcus (VRE) strains isolated from river water, E. faecalis B3/101 and E. faecalis A5/102, which is sensitive to ampicillin. Frozen stocks of all strains were grown on Mueller-Hinton agar (MH-BioKar Diagnostics, Allone, France) at 37° C. for 24 h. All bacterial strains were sub-cultured on MH agar and incubated overnight at 37° C. before each assay, in order to obtain fresh cultures.
# (§2) An initial screening of the antibacterial activity of the compounds was performed by the Kirby-Bauer disk diffusion method, as recommended by the Clinical and Laboratory Standards institute (CLSI). Briefly, sterile 6 mm blank paper disks (Oxoid, Basingstoke, England) impregnated with 15 μg of each compound were placed on inoculated MH agar plates. A blank disk with DMSO was used as a negative control. MH inoculated plates were incubated for 18-20 hours at 37° C. At the end of the incubation, the inhibition halos where measured. The minimal inhibitory concentration (MIC) was used to determine the antibacterial activity of each compound, in accordance with the recommendations of the CLSI. Two-fold serial dilutions of the compounds were prepared in Mueller-Hinton Broth 2 (MHB2-Sigma-Aldrich, St. Louis, Mo., USA) within the concentration range of 0.062-64 μg/mL. Cefotaxime (CTX) ranging between 0.031-16 μg/mL was used as a control. Sterility and growth controls were included in each assay. Purity check and colony counts of the inoculum suspensions were also performed in order to ensure that the final inoculum density closely approximates the intended number ([…]). The MIC was determined as the lowest concentration at which no visible growth was observed. The minimal bactericidal concentration (MBC) was assessed by spreading 10 μL of culture collected from wells showing no visible growth on MH agar plates. The MBC was determined as the lowest concentration at which no colonies grew after 16-18 hours incubation at 37° C. These assays were performed in duplicate.
# E. faecalis ATCC 29212 = test: MIC/MBC broth dilution (CLSI), E. faecalis reference strain; assay type: cell-based, Enterococcus faecalis
# Description: as §1, §2
# E. faecalis B3/101 (VRE) = test: MIC/MBC broth dilution (CLSI), VRE; assay type: cell-based; conditions: Enterococcus faecalis
# Description: as §1, §2
# S. aureus 66/1 (MRSA) = test: MIC/MBC broth dilution (CLSI), MRSA; assay type: cell-based; conditions: Staphylococcus aureus
# Description: as §1, §2
# [2] = test system: Staphylococcus aureus ATCC 29213; test: MIC/MBC broth dilution (CLSI), S. aureus reference strain; assay type: cell-based; conditions: for MBC / MIC: Staphylococcus aureus, ATCC29213
# Description: as §1, §2
# E. faecalis A5/102 (VRE) = test: MIC/MBC broth dilution (CLSI), VRE sensitive to ampicillin; assay type: cell-based; conditions: Enterococcus faecalis
# Description: as §1, §2
# [3] = P. falciparum (3D7), 48 h, read-out: IC50
# [4] = Enterococcus faecalis, ATCC29212
# [5] = S. aureus ATCC 29213, read-out: MIC
# [6] = S. aureus 40/61/24, read-out: MIC
# [7] = Enterococcus faecalis, ATCC29212, read-out: MIC
SMILES,"IC50 [1, 3]",MBC (S. aureus 40/61/24; S. aureus 40/61/24),MBC (E. faecalis ATCC 29212; [4]),MBC (S. aureus 66/1 (MRSA)),MIC (S. aureus 66/1 (MRSA)),antibacterial (inhibitory) effect (in words) ([2]; S. aureus ATCC 29213),MBC ([2]; S. aureus ATCC 29213),"MIC [2, 5]",further results
CC(C)C[C@@H]1NC(=O)[C@@H](Cc2c[nH]c3ccccc23)n2c1nc1ccc(Cl)cc1c2=O [Compound 28],–,> 64 µg/mL,> 64 µg/mL,> 64 µg/mL,> 64 µg/mL,inhibitory effect,> 64 µg/mL,32 µg/mL,MIC (S. aureus 40/61/24; 40/61/24): 64 µg/mL; antibacterial (inhibitory) effect (in words) (E. faecalis ATCC 29212): inhibitory effect; MIC (E. faecalis ATCC 29212; [4]): 32 µg/mL; MBC (E. faecalis B3/101 (VRE)): > 64 µg/mL; MIC (E. faecalis B3/101 (VRE)): > 64 µg/mL; MBC (E. faecalis A5/102 (VRE)): > 64 µg/mL; MIC (E. faecalis A5/102 (VRE)): 64 µg/mL
"CCN(CC)CCCC(C)Nc1ccnc2cc(Cl)ccc12 (stereo not drawn) [CQ (6), chloroquine, reference compound]",–,–,–,–,–,–,–,–,IC50 ([1]; 3D7): 15.08 ± 0.08 nM
"CC(C)[C@@H]1NC(=O)[C@@H](Cc2c[nH]c3ccccc23)n2c1nc1c(Cl)cc(Cl)cc1c2=O [Compound 30, (1S, 4R)-4-((1H -indol-3-yl)methyl)-8,10-dichloro-1-isopropyl-1,2-dihydro-6H-pyrazino[2,1-b]quinazoline-3,6(4H)-dione]",–,> 64 µg/mL,> 64 µg/mL,> 64 µg/mL,> 64 µg/mL,inhibitory effect,> 64 µg/mL,16 µg/mL,MIC (S. aureus 40/61/24; [6]): > 64 µg/mL; MIC (E. faecalis ATCC 29212; [7]): > 64 µg/mL
"CC[C@H](C)[C@@H]1NC(=O)[C@@H](Cc2c[nH]c3ccccc23)n2c1nc1ccc(Cl)cc1c2=O [Compound 29, (1S,4R)-4-((1H-indol-3-yl)methyl)-1-((S)-sec-butyl)-8-chloro-1,2-dihydro-6H-pyrazino[2,1-b]quinazoline-3,6(4H)-dione]",–,> 64 µg/mL,> 64 µg/mL,> 64 µg/mL,> 64 µg/mL,inhibitory effect,> 64 µg/mL,–,MIC (S. aureus 40/61/24; 40/61/24): 64 µg/mL; antibacterial (inhibitory) effect (in words) (E. faecalis ATCC 29212): inhibitory effect; MIC (E. faecalis ATCC 29212; [4]): 32 µg/mL; MBC (E. faecalis B3/101 (VRE)): > 64 µg/mL; MIC (E. faecalis B3/101 (VRE)): > 64 µg/mL; MIC [2]: 16 µg/mL; MBC (E. faecalis A5/102 (VRE)): > 64 µg/mL; MIC (E. faecalis A5/102 (VRE)): 64 µg/mL
"CC(C)[C@@H]1NC(=O)[C@@H](Cc2c[nH]c3ccccc23)n2c1nc1ccc(Cl)cc1c2=O [Compound 27, (1S, 4R)-4-((1H-indol-3-yl)methyl)-8-chloro-1-isopropyl-1,2-dihydro-6H-pyrazino[2,1-b]quinazoline-3,6(4H)-dione]",–,> 64 µg/mL,> 64 µg/mL,> 64 µg/mL,> 64 µg/mL,inhibitory effect,> 64 µg/mL,32 µg/mL,MIC (S. aureus 40/61/24; 40/61/24): 64 µg/mL; MIC (E. faecalis ATCC 29212): 64 µg/mL; antibacterial (inhibitory) effect (in words) (E. faecalis ATCC 29212): inhibitory effect; MIC (E. faecalis ATCC 29212; [4]): 32 µg/mL; MBC (E. faecalis B3/101 (VRE)): > 64 µg/mL; MIC (E. faecalis B3/101 (VRE)): > 64 µg/mL; MBC (E. faecalis A5/102 (VRE)): > 64 µg/mL; MIC (E. faecalis A5/102 (VRE)): 64 µg/mL
"CCC(C)[C@@H]1NC(=O)[C@@H](Cc2c[nH]c3ccccc23)n2c1nc1c(Cl)cc(Cl)cc1c2=O (stereo partly drawn) [Compound 32, (1S, 4R)-4((1H-indol-3-yl)methyl)-1-((S)-sec-butyl) 8,10-dichloro-1,2-dihydro-6H-pyrazinoi[2,1-b]quinazoline-3,6(4H)-dione]",–,> 64 µg/mL,> 64 µg/mL,> 64 µg/mL,8 µg/mL,inhibitory effect,> 64 µg/mL,4 µg/mL,"MIC (S. aureus 40/61/24; 40/61/24): 8 µg/mL; MIC (E. faecalis ATCC 29212; [7]): > 64 µg/mL; IC50 ([1]; 3D7, 48 h): 1510 ± 530 nM"
CC(C)[C@@H]1NC(=O)[C@H](Cc2c[nH]c3ccccc23)n2c1nc1ccccc1c2=O [Compound 10],–,–,–,–,–,–,–,–,antimalarial activity (in words) [1]: inactive
"CC(C)C[C@@H]1NC(=O)[C@@H](Cc2c[nH]c3ccccc23)n2c1nc1ccc(Br)cc1c2=O [Compound 36, (1s,4R)-4-((1H-indol-3-yl)methyl)-8-bromo-1-isobutyl-1,2-dihydro-6H-pyrazino[2,1-b]quinazoline-3,6(4H)-dione]",–,> 64 µg/mL,> 64 µg/mL,> 64 µg/mL,> 64 µg/mL,inhibitory effect,> 64 µg/mL,16 µg/mL,MIC (S. aureus 40/61/24; [6]): > 64 µg/mL; MIC (E. faecalis ATCC 29212; [7]): > 64 µg/mL
CC(C)C[C@@H]1NC(=O)[C@H](Cc2c[nH]c3ccccc23)n2c1nc1ccccc1c2=O [Compound 14],–,–,–,–,–,–,–,–,antimalarial activity (in words) [1]: inactive
"CC(C)C[C@@H]1NC(=O)[C@@H](Cc2c[nH]c3ccccc23)n2c1nc1ccc(I)cc1c2=O [Compound 35, (1S,4R)-4-((1H-indol-3-yl)methyl)-8-iodo-1-isobutyl-1,2-dihydro-6H-pyrazino[2,1-b]quinazoline-3,6(4H)-dione]",–,> 64 µg/mL,> 64 µg/mL,> 64 µg/mL,> 64 µg/mL,inhibitory effect,> 64 µg/mL,16 µg/mL,MIC (S. aureus 40/61/24; [6]): 64 µg/mL; MIC (E. faecalis ATCC 29212; [7]): > 64 µg/mL
O=C1N[C@@H](Cc2ccc(OCc3ccccc3)cc2)c2nc3c(Cl)cc(Cl)cc3c(=O)n2[C@@H]1Cc1c[nH]c2ccccc12 [Compound 38],–,–,–,–,–,–,–,–,"IC50 ([1]; 3D7, 48 h): 4000 ± 20 nM"

# Continued, in another order:
"IC50 [1, 3]",SMILES,MBC (S. aureus 40/61/24; S. aureus 40/61/24),MBC (E. faecalis ATCC 29212; [4]),MBC (S. aureus 66/1 (MRSA)),MIC (S. aureus 66/1 (MRSA)),antibacterial (inhibitory) effect (in words) ([2]; S. aureus ATCC 29213),MBC ([2]; S. aureus ATCC 29213),"MIC [2, 5]",further results
730 ± 70 nM,CC(C)C[C@@H]1NC(=O)[C@@H](Cc2c[nH]c3ccccc23)n2c1nc1ccc(O)cc1c2=O [Compound 39],–,–,–,–,–,–,–,–
470 ± 220 nM,CC(C)C[C@H]1NC(=O)[C@@H](Cc2c[nH]c3ccccc23)n2c1nc1ccccc1c2=O [Compound 17],–,–,–,–,–,–,–,antimalarial activity (in words) [1]: decreased activity
4180 ± 30 nM,O=C1N[C@H](Cc2ccc(O)cc2)c2nc3ccccc3c(=O)n2[C@H]1Cc1c[nH]c2ccccc12 [Compound 25],–,–,–,–,–,–,–,–
1020 ± 270 nM,"CC(C)C[C@@H]1NC(=O)[C@@H](Cc2cc3ccccc3[nH]2)n2c1nc1cc(-c3nnnn3C)ccc1c2=O [Compound 44, (1S,4R)-4-((1H-indol-2-yl)methyl)-1-isobutyl-9-(1-methyl-1H-tetrazol-5-yl)-1,2-dihydro-6H-pyrazino [2,1-b]quinazoline-3,6(4H)-dione]",–,–,–,–,–,–,–,antimalarial activity (in words) [1]: weak activity
150 ± 50 nM,CC(C)[C@H]1NC(=O)[C@@H](Cc2c[nH]c3ccccc23)n2c1nc1ccccc1c2=O [Compound 13],–,–,–,–,–,–,–,antimalarial activity (in words) [1]: decreased activity
2000 ± 320 nM,CC(C)C[C@H]1NC(=O)[C@H](Cc2c[nH]c3ccccc23)n2c1nc1ccccc1c2=O [Compound 15],–,–,–,–,–,–,–,–
3680 ± 620 nM,C[C@H]1NC(=O)[C@@H](Cc2c[nH]c3ccccc23)n2c1nc1ccccc1c2=O [Compound 26],–,–,–,–,–,–,–,–
4000 ± 20 nM,"CC(C)C[C@@H]1NC(=O)[C@@H](Cc2c[nH]c3ccccc23)n2c1nc1cnccc1c2=O [Compound 42, (1S,4R)-4-((1H-indol-3-yl)methyl)-1-isobutyl-1,2-dihydro-6H-pyrazino[1,2-α]pyrido[3,4-d]pyrimidine-3,6(4H)-dione]",–,–,–,–,–,–,–,–
3760 nM,CC(C)C[C@@H]1NC(=O)[C@@H](Cc2c[nH]c3ccccc23)n2c1nc1ncccc1c2=O [Compound 43],–,–,–,–,–,–,–,–
